Data published in PubChem BioAssay AID248 (DTP/NCI, 2004).
Where “and” joins values, the source holds several entries; their conditions need not be identical. Equal entries are not always repeated. Toxic doses and inconclusive results are not listed. Rule as the data show it: active = T/C of 150% or more; inactive = T/C below 125%.

System: L1210 leukemia ip in BDF1 mice, survival T/C
Experiment: NCI In Vivo Anticancer Drug Screen. Data for tumor model L1210 Leukemia (intraperitoneal) in B6D2F1 (BDF1) mice
Conditions: endpoint: mean survival time, higher = longer survival
Procedure, shortened: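 Each compound was tested against a transplantable tumor grown in mice. The endpoint was survival, with treated animals benchmarked against vehicle controls as a simple ratio.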

[1] = dose: 100.0 mg/kg/injection, schedule: Q01DX009 (ip), vehicle: Klucel (hydroxypropylcellulose) (HPC)
[2] = dose: 100.0 mg/kg/injection, schedule: Q04DX002 (ip), vehicle: Klucel (hydroxypropylcellulose) (HPC)
[3] = dose: 100.0 mg/kg/injection, schedule: Q04DX003 (ip), vehicle: Klucel (hydroxypropylcellulose) (HPC)
[4] = dose: 200.0 mg/kg/injection, schedule: Q01DX009 (ip), vehicle: Klucel (hydroxypropylcellulose) (HPC)
[5] = dose: 200.0 mg/kg/injection, schedule: Q04DX002 (ip), vehicle: Klucel (hydroxypropylcellulose) (HPC)
[6] = dose: 200.0 mg/kg/injection, schedule: Q04DX003 (ip), vehicle: Klucel (hydroxypropylcellulose) (HPC)
[7] = dose: 400.0 mg/kg/injection, schedule: Q01DX009 (ip), vehicle: Klucel (hydroxypropylcellulose) (HPC)
[8] = dose: 400.0 mg/kg/injection, schedule: Q04DX002 (ip), vehicle: Klucel (hydroxypropylcellulose) (HPC)
[9] = dose: 400.0 mg/kg/injection, schedule: Q04DX003 (ip), vehicle: Klucel (hydroxypropylcellulose) (HPC)
[10] = dose: 50.0 mg/kg/injection, schedule: Q01DX009 (ip), vehicle: saline
[11] = dose: 100.0 mg/kg/injection, schedule: Q01DX009 (ip), vehicle: saline
[12] = dose: 100.0 mg/kg/injection, schedule: Q01DX001 (ip), vehicle: saline
[13] = dose: 200.0 mg/kg/injection, schedule: Q01DX001 (ip), vehicle: saline

Measured: T/C

Cc1cccc(C(O)c2cnc(C)n2Cc2ccccc2)c1 (stereo not given)
inactive: dose: 100.0 mg/kg/injection, schedule: Q01DX001 (ip), vehicle: Klucel (hydroxypropylcellulose) (HPC) 90 % of control | [1] 100 % of control and 86 % of control | [2] 108 % of control and 89 % of control | [3] 92 % of control | dose: 200.0 mg/kg/injection, schedule: Q01DX001 (ip), vehicle: Klucel (hydroxypropylcellulose) (HPC) 100 % of control | [4] 97 % of control and 89 % of control | [5] 96 % of control | [6] 96 % of control | dose: 400.0 mg/kg/injection, schedule: Q01DX001 (ip), vehicle: Klucel (hydroxypropylcellulose) (HPC) 97 % of control | [7] 93 % of control and 97 % of control | [8] 93 % of control and 101 % of control | [9] 94 % of control

COc1cc(Cl)ccc1NC(=O)Oc1ccc(OCc2ccccc2)cc1
inactive: [1] 94 % of control | [4] 94 % of control | [7] 97 % of control

CCCNC(=O)Nc1cccc(Cl)c1
inactive: dose: 100.0 mg/kg/injection, schedule: Q01DX001 (ip), vehicle: carboxymethylcellulose (CMC) 102 % of control | dose: 200.0 mg/kg/injection, schedule: Q01DX001 (ip), vehicle: carboxymethylcellulose (CMC) 109 % of control | dose: 400.0 mg/kg/injection, schedule: Q01DX001 (ip), vehicle: carboxymethylcellulose (CMC) 105 % of control

O=C(Nc1ccc(C2=NCC(O)CN2)cc1)c1ccc(C(=O)Nc2ccc(C3=NCC(O)CN3)cc2)c(Cl)c1 (stereo not given)
inactive: dose: 12.0 micrograms/kg/injection, schedule: Q01DX015 (ip), vehicle: water 96 % of control | dose: 25.0 micrograms/kg/injection, schedule: Q01DX015 (ip), vehicle: water 114 % of control | dose: 50.0 micrograms/kg/injection, schedule: Q01DX015 (ip), vehicle: water 96 % of control | dose: 75.0 micrograms/kg/injection, schedule: Q01DX015 (ip), vehicle: water 102 % of control

Oc1cccc(C2=NNC(c3cccc(O)c3)=NN2)c1
inactive: dose: 100.0 mg/kg/injection, schedule: Q04DX003 (ip), vehicle: gum acacia 93 % of control | dose: 200.0 mg/kg/injection, schedule: Q04DX003 (ip), vehicle: gum acacia 89 % of control | dose: 400.0 mg/kg/injection, schedule: Q04DX003 (ip), vehicle: gum acacia 86 % of control

CCCCC(/C=C1/CCCCC1=O)CC (stereo not given)
inactive: [1] 97 % of control | [3] 92 % of control | [4] 97 % of control | [6] 103 % of control | [9] 97 % of control

O=C(O)CCI
inactive: [10] 98 % of control | [11] 90 % of control | dose: 100.0 mg/kg/injection, schedule: Q04DX003 (ip), vehicle: other 102 % of control | dose: 200.0 mg/kg/injection, schedule: Q01DX009 (ip), vehicle: saline 100 % of control | dose: 200.0 mg/kg/injection, schedule: Q04DX003 (ip), vehicle: other 96 % of control

CC1(C)CN=C(c2ccc([N+](=O)[O-])cc2)O1
inactive: dose: 75.0 mg/kg/injection, schedule: Q04DX003 (ip), vehicle: Klucel (hydroxypropylcellulose) (HPC) 108 % of control | dose: 150.0 mg/kg/injection, schedule: Q04DX003 (ip), vehicle: Klucel (hydroxypropylcellulose) (HPC) 94 % of control | dose: 300.0 mg/kg/injection, schedule: Q04DX003 (ip), vehicle: Klucel (hydroxypropylcellulose) (HPC) 89 % of control

CCOC(=O)c1cnc(C)[nH]c1=O
inactive: dose: 12.5 mg/kg/injection, schedule: Q01DX009 (ip), vehicle: saline 100 % of control | dose: 25.0 mg/kg/injection, schedule: Q01DX009 (ip), vehicle: saline 99 % of control | [10] 94 % of control | [12] 108 % of control | [11] 101 % of control | [13] 101 % of control

O=[N+]([O-])c1cc(Br)cc2c1nc(NCCCO)c1ccccc12
inactive: [3] 103 % of control | [6] 109 % of control | [9] 109 % of control

CCCCN=C(NC(=S)Nc1ccc(Cl)cc1)SCC
inactive: dose: 100.0 mg/kg/injection, schedule: Q04DX002 (ip), vehicle: saline with Tween-80 95 % of control | dose: 200.0 mg/kg/injection, schedule: Q04DX002 (ip), vehicle: saline with Tween-80 92 % of control | dose: 400.0 mg/kg/injection, schedule: Q04DX002 (ip), vehicle: saline with Tween-80 95 % of control

O=c1c2cc([N+](=O)[O-])cc3c2-c2c4c(cc([N+](=O)[O-])cc14)c(O)c1cc([N+](=O)[O-])cc(c3=O)c21
inactive: dose: 100.0 mg/kg/injection, schedule: Q04DX003 (ip), vehicle: acetone 123 % of control | dose: 200.0 mg/kg/injection, schedule: Q04DX003 (ip), vehicle: acetone 120 % of control | dose: 266.0 mg/kg/injection, schedule: Q04DX003 (ip), vehicle: saline 111 % of control | dose: 400.0 mg/kg/injection, schedule: Q04DX003 (ip), vehicle: saline 116 % of control

COc1ccc(C(=O)OCc2ccccc2CN2CCCCC2)cc1
inactive: [2] 102 % of control | [5] 102 % of control | [8] 86 % of control

COCC1OC(OC)C(NC(C)=O)C(OC)C1OC (stereo not given)
inactive: [12] 101 % of control | [13] 101 % of control | dose: 400.0 mg/kg/injection, schedule: Q01DX001 (ip), vehicle: saline 96 % of control
